21 molecules from ChEMBL document CHEMBL1144109, “Structures and cytotoxicity relationship of isoaaptamine and aaptamine derivatives” (J Nat Prod, 1999) can be followed below.

Structures are written as SMILES. Converted amounts (≈) assume the structure as drawn.

Holding throughout (assay type): functional, cell-based
Assay [1] relates to HT-29. Briefly: Cytotoxicity against human HT-29 cells after 6 days by MTT assay. Particulars: HT-29, 144 h.
Assay [2] is described as follows: Cytotoxicity against human KB16 cells after 3 days by MTT assay. Particulars: KB16, 72 h.
Assay [3] deals with A549. Briefly: Cytotoxicity against human A549 cells after 6 days by MTT assay. Particulars: A549, 144 h. In general terms: Formazan colour is commonly taken as a measure of viable cells.
Assay [4] deals with P388. Nature of the assay: Cytotoxicity against mouse P388 cells after 3 days by MTT assay. Particulars: P388, 72 h.

As for `CCCCCCCCC(=O)Oc1c(OC)cc2ccnc3c2c1N(C)C=C3`, the IC50 (commonly the concentration at which inhibition is half-maximal) in assay [1] is 3 µg/mL (≈ 8.14 µM); in assay [2], 33 µg/mL (≈ 89.6 µM); in assay [3] it was 12 µg/mL (≈ 32.6 µM); in assay [4], 0.04 µg/mL (≈ 0.109 µM).
As to `CCCCCCCCCC(=O)Oc1c(OC)cc2ccnc3c2c1N(C)C=C3`, the IC50 worked out at 2.5 µg/mL (≈ 6.54 µM) in assay [1], 20 µg/mL (≈ 52.3 µM) in assay [2], 6.1 µg/mL (≈ 15.9 µM) in assay [3] and 0.03 µg/mL (≈ 0.0784 µM) in assay [4].
On to `CCCCCCCCCCCC(=O)Oc1c(OC)cc2ccnc3c2c1N(C)C=C3`, for which the IC50 in assay [1] was 2.5 µg/mL (≈ 6.09 µM); in assay [2] it was 20 µg/mL (≈ 48.7 µM); in assay [3] it was 3.7 µg/mL (≈ 9.01 µM); in assay [4] it was 0.03 µg/mL (≈ 0.0731 µM).
As for `COc1cc2c3c(ccnc3c1OC)N(C(C)=O)CC2`, the IC50 in assay [1] stood at 17 µg/mL (≈ 62.4 µM); in assay [2] it was 32 µg/mL (≈ 118 µM); in assay [3], 20 µg/mL (≈ 73.4 µM); in assay [4], 2.6 µg/mL (≈ 9.55 µM).
Take `CCCCCC(=O)N1CCc2cc(OC)c(OC)c3nccc1c23`: the IC50 in assay [1] was more than 50 µg/mL; in assay [2], more than 50 µg/mL; in assay [3] it was more than 50 µg/mL; in assay [4], 3.7 µg/mL (≈ 11.3 µM).
As for `COc1cc2ccnc3c2c(c1OC(C)=O)N(C)C=C3`, the IC50 in assay [1] was more than 50 µg/mL; in assay [2] it was more than 50 µg/mL; in assay [3], more than 50 µg/mL; in assay [4], 4.2 µg/mL (≈ 15.5 µM).
On to `CCCCCCCCCCCCCCCCCC(=O)N1CCc2cc(OC)c(OC)c3nccc1c23`, for which the IC50 in assay [1] is more than 50 µg/mL; in assay [2], 20 µg/mL (≈ 40.3 µM); in assay [3], more than 50 µg/mL; in assay [4] it was 2.7 µg/mL (≈ 5.44 µM).
With `CCC(=O)Oc1c(OC)cc2ccnc3c2c1N(C)C=C3`, the IC50 in assay [1] amounted to 13 µg/mL (≈ 45.7 µM); in assay [2], 28 µg/mL (≈ 98.5 µM); in assay [3] it was 18 µg/mL (≈ 63.3 µM); in assay [4], 1.4 µg/mL (≈ 4.92 µM).
`CCCCCC(=O)Oc1c(OC)cc2ccnc3c2c1N(C)C=C3`: the IC50 in assay [1] was determined as 12 µg/mL (≈ 36.8 µM); in assay [2] it was 33 µg/mL (≈ 101 µM); in assay [3], 13 µg/mL (≈ 39.8 µM); in assay [4] it was 0.7 µg/mL (≈ 2.14 µM).
For the molecule `CCCCCCCC(=O)Oc1c(OC)cc2ccnc3c2c1N(C)C=C3`, the IC50 in assay [1] came to 12 µg/mL (≈ 33.9 µM); in assay [2], 15 µg/mL (≈ 42.3 µM); in assay [3] it was 14 µg/mL (≈ 39.5 µM); in assay [4], 1.5 µg/mL (≈ 4.23 µM).
On the same counts, the results for `CCCCCCC(=O)Oc1c(OC)cc2ccnc3c2c1N(C)C=C3` are 13 µg/mL (≈ 38.2 µM), 38 µg/mL (≈ 112 µM), 11 µg/mL (≈ 32.3 µM) and 0.7 µg/mL (≈ 2.06 µM).
On the same counts, the results for `CCCCC(=O)Oc1c(OC)cc2ccnc3c2c1N(C)C=C3` are 9 µg/mL (≈ 28.8 µM), 35 µg/mL (≈ 112 µM), 13 µg/mL (≈ 41.6 µM) and 1.8 µg/mL (≈ 5.76 µM).
In the same order, the values of `CCCCCCCCCCCCCCCCCC(=O)Oc1c(OC)cc2ccnc3c2c1N(C)C=C3` are 21 µg/mL (≈ 42.4 µM), more than 50 µg/mL, more than 50 µg/mL and 1.1 µg/mL (≈ 2.22 µM).
For the molecule `CCCCCCCCCCCC(=O)N1CCc2cc(OC)c(OC)c3nccc1c23`, the IC50 stood at 9.6 µg/mL (≈ 23.3 µM) in assay [1], 7.8 µg/mL (≈ 18.9 µM) in assay [2], 5.6 µg/mL (≈ 13.6 µM) in assay [3] and 0.1 µg/mL (≈ 0.242 µM) in assay [4].
For the molecule `CCCCCCCCCCCCCC(=O)Oc1c(OC)cc2ccnc3c2c1N(C)C=C3`, the IC50 in assay [1] came out at 2.7 µg/mL (≈ 6.16 µM); in assay [2] it was 3.3 µg/mL (≈ 7.52 µM); in assay [3] it was 5.6 µg/mL (≈ 12.8 µM); in assay [4], 0.3 µg/mL (≈ 0.684 µM).
Take `CCCCCCCCCCCCCCCC(=O)Oc1c(OC)cc2ccnc3c2c1N(C)C=C3`: the IC50 in assay [1] was determined as 9 µg/mL (≈ 19.3 µM); in assay [2], 8 µg/mL (≈ 17.1 µM); in assay [3], 7.3 µg/mL (≈ 15.6 µM); in assay [4], 0.1 µg/mL (≈ 0.214 µM).
On the same counts, the results for `COc1cc2ccnc3c2c(c1OC)NC=C3` [AAPTAMINE] are 6.9 µg/mL (≈ 30.2 µM), 3.9 µg/mL (≈ 17.1 µM), 2.8 µg/mL (≈ 12.3 µM) and 0.6 µg/mL (≈ 2.63 µM).
`COC1=Cc2ccnc3c2C1=C(OC)NC=C3` [AAPTOSINE]: the IC50 in assay [1] and in assay [3] was more than 50 µg/mL each time.
`COC1=Cc2ccnc3ccnc(c23)C1=O` [DEMETHYLOXY-AAPTAMINE]: the half-inhibitory concentration (IC50) in assay [2] stood at 0.1 µg/mL (≈ 0.471 µM); in assay [3] it was 0.3 µg/mL (≈ 1.41 µM); in assay [4], 0.01 µg/mL (≈ 0.0471 µM).
For `COc1cc2c3c(ccnc3c1OC)NCC2` [DIHYDROAAPTAMINE], the IC50 in assay [1] turned out to be 47 µg/mL (≈ 204 µM); in assay [2] it was 22 µg/mL (≈ 95.5 µM); in assay [3], 23 µg/mL (≈ 99.9 µM); in assay [4] it was 1.8 µg/mL (≈ 7.82 µM).
In the same order, the values of `COc1cc2ccnc3c2c(c1O)N(C)C=C3` [ISOAAPTAMINE] are 0.4 µg/mL (≈ 1.75 µM), 0.4 µg/mL (≈ 1.75 µM), 0.3 µg/mL (≈ 1.31 µM) and 0.04 µg/mL (≈ 0.175 µM).
